According to the NIST ThermoML archive (doi:10.1016/j.tca.2012.02.002):
± gives the expanded uncertainty stated by the source.

Settings: 293 K; 101.33 kPa; Crystal; X-ray diffraction

molar volume: 4.271e-05 ± 5.1e-07 m3/mol
SMILES: O=P([O-])([O-])[O-].[Er+3] [erbium phosphate]
